Measurements: patent US5089392A, “Fluorogenic substrates for measurement of lysosomal enzyme activities within intact cells” (The United States of America as represented by of the …, priority 1990, dated 1992)

How the values were obtained:
β-galactosidase = assay: Cell-free systems that have β-galactosidase activity; format: biochemical
[1] = molecular target: T1, lysosomal β-galactosidase (Homo sapiens, UniProt P16278); assay: Loading and intracellular hydrolysis in intact human skin fibroblasts in culture (fluorescence scanning of 96-well plates, fluorescence microscopy); format: cell-based
T1 sequence (P16278 29-677): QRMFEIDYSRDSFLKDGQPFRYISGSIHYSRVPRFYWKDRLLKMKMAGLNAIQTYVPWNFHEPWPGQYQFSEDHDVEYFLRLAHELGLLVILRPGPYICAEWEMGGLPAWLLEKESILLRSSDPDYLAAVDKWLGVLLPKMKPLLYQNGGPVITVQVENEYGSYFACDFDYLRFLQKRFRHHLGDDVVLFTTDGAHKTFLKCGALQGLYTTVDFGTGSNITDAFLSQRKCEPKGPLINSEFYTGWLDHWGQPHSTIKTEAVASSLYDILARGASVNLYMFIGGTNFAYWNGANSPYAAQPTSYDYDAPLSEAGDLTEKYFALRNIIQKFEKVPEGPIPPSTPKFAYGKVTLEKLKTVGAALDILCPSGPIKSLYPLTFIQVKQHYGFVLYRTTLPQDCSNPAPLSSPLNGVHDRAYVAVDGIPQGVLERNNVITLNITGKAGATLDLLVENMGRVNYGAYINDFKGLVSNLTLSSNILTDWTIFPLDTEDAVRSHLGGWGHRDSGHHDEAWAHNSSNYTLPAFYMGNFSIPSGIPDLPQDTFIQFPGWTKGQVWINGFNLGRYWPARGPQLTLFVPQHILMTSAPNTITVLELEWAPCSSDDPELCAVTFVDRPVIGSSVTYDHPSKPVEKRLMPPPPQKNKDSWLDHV
Method: Loading of Im-DCH-β-Gal(OAc)., 4, into human skin fibroblasts in culture was accomplished as follows. A 20 mM solution of 4 in ethanol was injected via syringe into McCoy's medium to give a 0.1 mM final concentration of fluorogenic substrate. The substrate was further dispersed in the medium by sonication with a W140 Sonifier (two 10 second pulses on power setting of 3). After incubation for 24 hours in serum-free McCoy's medium, cells were loaded with 4 by replacement of the medium with medium containing 0.1 mM substrate. Excess Im-DCH-β-Gal(OAc) may be removed by rinsing the cells, after which the cells may be further incubated in serum free McCoy's medium. […] Excitation (Xenon lamp) through a 360 nm bandpass filter with 10% transmittance at 310 and 385 nm. Emission through a chromatic beam splitter mirror that transmits fully above 405 nm plus a long pass filter with a transmittance of 1% at 408 nm and 10% at 412 nm. Enzymatic hydrolysis was followed by scanning of the loaded cells in a 96-well tissue culture plate with a Dynatech Microfluorometer. Quantitation of product formation was achieved by comparison of the fluorescence generated within individual wells with a standard curve that was obtained from known concentrations of the fluorescent product, 3.
Decreased activity was measured in GM1 cells (12-16% of normal) by fluorescence scanning of 96-well plates. […] In contrast, normal cells are nonfluorescent 24 hours after loading, having hydrolysed their substrate and released the fluorescent product into the media.

[2] = Fluorescence properties of Im-DCH and its galactoside; format: physicochemical; details: excitation at 365 nm, detection at 460 nm
Text: (§1) Two other advantages of the fluorophors of the present invention derive from their physical and optical properties: (1) The low pKa of the phenol in Im-DCH (pKa-5.6) allows the maximal fluoroscence (excitation at 385 nm, detection at 460 nm) to be generated at physiological pH values as well as the low pH conditions within lysosomes. The extremely low pKa of the excited state of Im-DCH (pKa*=0.5) permits strong fluorescence to be measured in solutions as acidic as pH 2-3. By proper choice of spectral parameters (excitation at 365 nm, detection at 460 nm), the fluorescence becomes essentially independent of pH, with a fluorescence intensity at pH 2 that is 60% of the maximum. Ratio measurements of fluorescence (emission at 460 nm with excitation at 365 and 385 nm) also provide an estimate of the pH at the site of enzymatic hydrolysis. (2) Shifts in both the absorption and emission spectra occur upon the hydrolysis of glycosides of Im-DCH to give free Im-DCH. This permits the detection of small amounts of enzymatic hydrolysis in the presence of a very large excess of substrate. For example, at 385 nm excitation and 460 nm detection, the ratio of fluoroescence of the hydrolysis product, Im-DCH, to intact Im-DCH-β-Gal is 620:1. […] It is then deacetylated intracellularly to generate the enzymatically active substrate.

[3] = pKa of the Im-DCH fluorophor (imidazole moiety, phenol, excited state); format: physicochemical
Text: This term refers to moderately basic amines that concentrate (via acid-base equilibria) in low pH organelles such as lysosomes. For Im-DCH in compounds 4 and 5, the N-alkyl imidazole moiety, with a pKa of approximately 7, serves this function. This lysosomotropic property accounts for a first important attribute of enzyme substrates based upon Im-DCH that is, concentration within lysosomes to ensure that sufficient substrate is concentrated within the lysosomes in order to yield a readily detectable fluorescent signal.
as §1

[4] = molecular target: T1, lysosomal β-galactosidase; assay: In vitro hydrolysis of the fluorogenic substrate by fibroblast lysates; format: biochemical
Method: The ability of 5 to serve as a fluorogenic substrate was tested using fibroblasts derived from patients with GM1 gangliosidosis, a hereditary deficiency of lysosomal β-galactosidase.

CC(=O)OC[C@H]1O[C@@H](Oc2ccc(OCCCCn3ccnc3)c(C#N)c2C#N)[C@H](OC(C)=O)[C@@H](OC(C)=O)[C@H]1OC(C)=O [Compound 4, β-D-galactopyranoside of 2,3-dicyano-4-[4-(1-imidazolyl)-butoxy]-phenol-2,3,4,6-tetra-O-acetate]
activity as a substrate in cell-free systems (β-galactosidase): inactive | hydrolysis activity in intact GM1 cells relative to normal ([1]; GM1 cells, fluorescence scanning of 96-well plates): 12-16 % of normal | intracellular localization of fluorescence in GM1 fibroblasts ([1]; GM1 fibroblasts, fluorescence microscopy): initial perinuclear clustering followed within 24 hours by sequestration into vacuoles | specificity of the impaired hydrolysis in GM1 gangliosidosis lines ([1]; comparison with cell lines expressing other lysosomal storage disorders): specific for their lysosomal β-galactosidase deficiency | uptake by intact fibroblasts ([1]; human skin fibroblasts, 0.1 mM substrate): taken up by intact fibroblasts | fluorescence of normal cells after loading ([1]; normal fibroblasts, 24 hours after loading): nonfluorescent

Cl.N#Cc1c(O)ccc(OCCCCn2ccnc2)c1C#N [Compound 3, 2,3-dicyano-4-[4-(1-imidazolyl)-butoxy]-phenol hydrochloride salt]
fluorescence intensity at pH 2 relative to the maximum [2]: 60% | pKa of the phenol [3]: 5.6 | pKa of the excited state (pKa*) ([3]; excited state): 0.5 | pKa of the N-alkyl imidazole moiety ([3]; lysosomotropic amine moiety of Im-DCH in compounds 4 and 5): approximately 7

N#Cc1c(OCCCCn2ccnc2)ccc(O[C@@H]2O[C@H](CO)[C@H](O)[C@H](O)[C@H]2O)c1C#N [Compound 5, β-D-galactopyranoside of 2,3-dicyano-4-[4-(1-imidazolyl)-butoxy]-phenol]
hydrolysis activity in GM1 gangliosidosis lysates relative to normal ([4]; lysates from four GM1 gangliosidosis fibroblast lines): 0.3-5.3 % of normal activity | hydrolysis by lysates from normal fibroblasts ([4]; lysates from three normal fibroblast lines): hydrolysed rapidly
